Ends that are not written are not given here. Peptide text beside a SMILES is read from it.
How the values were obtained:
[1] = test system: IgA-α1AT complex; assay: HPLC analysis of in vitro dissociation of purified IgA-α1AT complex; assay type: biochemical, human; conditions: for HPLC minimum: Table 5, minimum concentration giving complex : free IgA ratio at 20% (base-line 14%), >500µM = no complex dissociation at highest concentration tested; for HPLC %: Table 1
Experimental: The ability of the peptides of the invention to dissociate purified IgA-α1AT complex in vitro was tested as described below. The anti-rheumatic drug D-penicillamine and other synthetic peptides were used as controls. […] The sample was monitored at wavelength 206nm at a flow rate of 1ml/minute with phosphate buffer (0.1M) pH 7.1. […] They represent the ability of the peptides to dissociate the IgA-α1AT complex in vitro. In these experiments, the base-lines level comprises a complex : free IgA ratio of 14% . The minimum concentration of peptide taken to produce a positive dissociation effect is that which results in a complex: free IgA ratio at 20%. In the results tables, all the peptide values are expressed in µMoles.

[2] = test system: alternative complement (C3) pathway; assay: Inhibition of C3-activation: preventing IgA-α1AT complex from activating the alternative complement pathway, rabbit erythrocyte haemolysis read-out; assay type: biochemical, human
Experimental: Various peptides were tested for their ability to prevent the IgA-α1AT complex from activating the alternative complement (C3) pathway.
The method of measuring the capacity to activate the alternative complement pathway by the non-immune IgA-α1AT complex and the subsequent inhibition of this activation by anti-rheumatic peptides is described below.
This method was based on the method described by Riches and Stanworth, Immunology Letters, 1980, 1, 363,366, with modification to miniaturise it thus allowing the assay to be carried out on microtitre plates.
The initial observation by Platts-Mills and Ishizaka (J Immunol. (1974) 113, 348,358) that low dilutions of fresh normal human serum, from which calcium had been removed by chelation with 10mM EGTA to block the classical complement pathway, caused greater than 90% haemolysis of unsensitised rabbit erythrocytes when incubated at 37°C was employed in this assay.
The non-immune complex IgA-α1AT had been shown in the past to be the only known soluble complex to activate the alternative pathway complement and […] of the rabbit erythrocytes. This inhibition required biologically active complex.
The buffers solutions required in this assay were (a) Total lysis buffer (1% Triton100 in ultra pure water), (b) Alternative pathway complement fixation diluent (APCFD) which was:- • 83 volumes CFD, DH 7.2 (1 oxoid tablet: 100ml UPW) • 10 volumes 0.1M EGTA pH 7.2 • 7 volumes MgCl2 pH 7.2
Blood was obtained by venipuncture from a healthy human individual. The blood was allowed to clot for 1 hour at room temperature and then stored overnight at 4°C. The serum was removed and stored at -70°C in lml aliquots. For use, the serum was defrosted and 100µl of 0.1m EGTA pH 7.2 and 70µl O.lm MgCl2 pH 7.2 was added.
Rabbit red blood cells (RBC) were obtained by venipuncture of a healthy rabbit and collected into 0.1M citrate buffer pH 6.2. The RBC were washed 3 times in citrate buffer and the cells were stored in this buffer which was changed every week. It was possible to store cells in this way for 3 weeks. Peptides
The peptides were synthesised as described in Example 1 and made up in UPW to lmM. They were kept frozen at -70°C prior to use.
This was prepared as previously described in Example 2. It was kept frozen in small aliquots prior to use.
Using a round bottomed welled flexible microtitre plate 100µl neat serum (with added EGTA and MgCl2) was added to the first wells in duplicate. This was double diluted out, with APCFD to give a volume of 50µl well. 8 test wells (+ duplicates) were sufficient. 8 wells were prepared as a positive control - (100µl 1% Triton/UPW). 8 wells were prepared as a negative control - (100µl APCFD (Blank)).
50µl of APCFD was added to the test wells and 50µl of 1% rabbit RBC was added to all wells. The plate was then incubated at 37°C for 30 minutes and then centrifuged for 10 minutes at 2000 rpm.
75µl of the supernatant was carefully removed and plated onto a flat bottom welled microtitre plate. The plates were then read at 410nm interference, 690nm reference. The zero or blank value was calculated as the mean value of negative control wells and using the mean of the positive control wells, the percentage lysis for serum dilutions was calculated. In future assays the serum dilution in which lysis was approx. 80% of Rb RBC was used. This was usually in the range 1:4 - 1:6 dilution (ie. lml serum : 4ml APCFD - 6ml APCFD).
A 1:1 dilution of IgA-α1AT complex was made with twice concentrated APCFD. 100µl of this 1:1 dilution of complex was added to the first wells in duplicate. This was double diluted out with APCFD to give 50 µl per well. 50µl of the predetermined dilution of serum (see (i) above) was added to each well. Positive and negative control wells as described in (a) above and wells containing serum alone were used as controls. The plates were incubated at 37°C for 30 minutes and then centrifuged at 2000 rpm for 1 minute. […]

[3] = test system: mouse macrophage cell line (PU 518); assay: Macrophage inhibition assay: IgA-α1AT complex-stimulated release of lysosomal enzymes; assay type: cell-based; conditions: concentration needed to prevent 50% release of β-glucoromidase
Experimental: A mouse macrophage cell line (PU 518) was stimulated to release lysosomal enzymes by the addition of purified human IgA-α1AT complex. The degree to which this release was then inhibited by the peptides or other drugs was investigated, with the degree of inhibition being indicative of activity; the concentration of peptide or other test drugs giving 50% inhibition being recorded. Briefly the method was as follows:
25µl of peptide or drug was double diluted in […] + 10% foetal calf serum (FCS) in a sterile tissue culture 96 well plate. 25µl of IgA-α1AT complex in RPMI 1640 +10% FCS at about 0.2mg/ml was then added to all wells. 50µl of cells at a concentration of 2 x 10^6 cells/ml in RPMI 1640 + 10% FCS was then added to each well.
Control wells of cells alone and cells + IgA-α1AT complex were also prepared. The plate was then gently mixed and incubated overnight (16hr) at 37°C in a 4% CO2 atmosphere. Plates were then centrifuged at 1200 rpm for 10 minutes in a bench top centrifuge.
40µl of supernatant was then taken from each well and added to a 96 well polystyrene assay plate, to which was added 40µl of 160mM acetate buffer (pH 4.3) containing 2mM phenolphthalein-β-D-glucuronic acid. To obtain a standard curve, dilutions of phenolphthalein in acetate buffer from 100-5µg/ml were also added to separate wells in the assay plate.
The plates were then incubated at 37°C for 4 hours before 150µl of 0.2M glycine/NaOH buffer (pH 10.6) containing 0.2M NaCl was added to stop the reaction.
Plates were then shaken for 3 minutes before the optical density at 570nm was read on a plate reader, and the amount of β-D-glucuronic acid released from the cells calculated. The concentration of peptide or drug giving 50% inhibition of release was then noted.
The results for the macrophage inhibition assays are expressed as the concentration needed to prevent 50% release of β-glucoromidase.

[4] = minimum peptide concentration giving complex : free IgA ratio at 20% (base-line 14%), 90 minutes at 37°C
[5] = Table 1, minimum concentration of peptide needed to prevent C3 activation
[6] = Table 3, minimum peptide concentration giving complex : free IgA ratio at 20% (base-line 14%), 90 minutes at 37°C
[7] = Table 3, minimum concentration of peptide needed to prevent C3 activation
[8] = Table 4, minimum peptide concentration giving complex : free IgA ratio at 20% (base-line 14%), 90 minutes at 37°C
[9] = Table 4, minimum concentration of peptide needed to prevent C3 activation
[10] = Table 5, minimum concentration needed to prevent C3 activation

In the case of `NCCCC[C@H](NC(=O)[C@H](CCCCN)NC(=O)[C@@H](N)CS)C(N)=O` [Peptide 114, CKKnh2] (H-Cys-Lys-Lys-NH2), the “HPLC% minimum” value ([1]; Table 2, minimum peptide concentration giving complex : free IgA ratio at 20% (base-line 14%), 90 minutes at 37°C) is reported as 125 µM and the “C' minimum” value ([2]; Table 2, minimum concentration of peptide needed to prevent C3 activation) is reported as greater than 1250 µM.
For `NCCCC[C@H](NC(=O)[C@@H](N)CS)C(N)=O` [Peptide 115, CKnh2, reference compound] (H-Cys-Lys-NH2), the “HPLC minimum” value ([1]; 90 minutes at 37°C) was 500 µM and the activity ([1]; comment in words on Tables 3-5, assay not given, fits the HPLC values) was “substantially less active”.
In the case of `NCCCC[C@H](NC(=O)[C@H](CCCCN)NC(=O)[C@H](CS)NC(=O)[C@@H](N)Cc1c[nH]cn1)C(N)=O` [Peptide 132, HCKKnh2] (H-HCKK-NH2), the IC50 ([3]; Table 1, 16hr incubation) is reported as 60 µM, the “HPLC %” value [1, 4] is reported as 10 µM and the “C'” value [2, 5] is reported as 16 µM.
In the case of `C[C@@H](N)C(=O)N[C@@H](Cc1c[nH]cn1)C(=O)N[C@@H](CS)C(=O)N[C@@H](CCCCN)C(=O)N[C@@H](CCCCN)C(N)=O` [Peptide 205, dAHCKKnh2] (HELM PEPTIDE1{[dA].H.C.K.K.[am]}$$$$V2.0), the “HPLC” value [1, 6] is reported as 10 µM and the “C'” value [2, 7] is reported as 1.95 µM.
With `C[C@@H](NC(=O)[C@H](CCCCN)NC(=O)[C@H](CCCCN)NC(=O)[C@H](CS)NC(=O)[C@@H](N)Cc1c[nH]cn1)C(N)=O` [Peptide 206, HCKKdAnh2] (HELM PEPTIDE1{H.C.K.K.[dA].[am]}$$$$V2.0) the “HPLC” value [1, 8] was 50 µM and the “C'” value [2, 9] was 31.3 µM.
With `C[C@@H](N)C(=O)N[C@@H](Cc1c[nH]cn1)C(=O)N[C@@H](CS)C(=O)N[C@@H](CCCCN)C(=O)N[C@@H](CCCCN)C(=O)N[C@H](C)C(N)=O` [Peptide 210, dAHCKKdAnh2, reference compound] (HELM PEPTIDE1{[dA].H.C.K.K.[dA].[am]}$$$$V2.0) the “HPLC minimum” value ([1]; 90 minutes at 37°C) was 10 µM and the “C' minimum” value [2, 10] was 3.9 µM.
DGGHCKK-NH2 [Peptide 118, DGGHCKKnh2] was tested, and the “HPLC” value [1, 6] was 50 µM.
With DGHCKK-NH2 [Peptide 119, DGHCKKnh2] the “HPLC” value [1, 6] was 10 µM.
DHCKK-NH2 [Peptide 113, DHCKKnh2] was tested, and the IC50 ([3]; Table 3, 16hr incubation) was 70 µM, the “HPLC” value [1, 6] was 10 µM and the “C'” value [2, 7] was 78 µM.
In the case of EGHCKK-NH2 [Peptide 155, EGHCKKnh2], the IC50 ([3]; Table 3, 16hr incubation) is reported as 60 µM, the “HPLC” value [1, 6] is reported as 5 µM and the “C'” value [2, 7] is reported as less than 2 µM.
With EHCKK-NH2 [Peptide 154, EHCKKnh2] the “HPLC” value [1, 6] was 5 µM and the “C'” value [2, 7] was less than 2 µM.
“HCCGKnh2 [Peptide 147, reference compound]” was tested, and the IC50 ([3]; Table 5, head prints no unit, b70 says all values of the results tables are in µMoles) was 250 µM, the “HPLC minimum” value ([1]; 90 minutes at 37°C) was 10 µM and the “C' minimum” value [2, 10] was 32 µM.
With HCKKD-NH2 [Peptide 120, HCKKDnh2] the IC50 ([3]; Table 4, 16hr incubation) was 25 µM, the “HPLC” value [1, 8] was 50 µM and the “C'” value [2, 9] was 62 µM.
For HCKKE-NH2 [Peptide 150, HCKKEnh2], the “HPLC” value [1, 8] was 50 µM and the “C'” value [2, 9] was 8 µM.
For HCKKGD-NH2 [Peptide 121, HCKKGDnh2], the “HPLC” value [1, 8] was 125 µM and the “C'” value [2, 9] was 62 µM.
With HCKKGE-NH2 [Peptide 151, HCKKGEnh2] the “HPLC” value [1, 8] was 50 µM and the “C'” value [2, 9] was 16 µM.
HCKKGGD-NH2 [Peptide 122, HCKKGGDnh2] was tested, and the “HPLC” value [1, 8] was 50 µM and the “C'” value [2, 9] was 31 µM.
For HCKKGGE-NH2 [Peptide 152, HCKKGGEnh2], the “HPLC” value [1, 8] was 10 µM and the “C'” value [2, 9] was 125 µM.
In the case of HDCKK-NH2 [Peptide 198, HDCKKnh2], the “HPLC %” value [1, 4] is reported as 10 µM and the “C'” value [2, 5] is reported as 3.9 µM.
HECKK-NH2 [Peptide 204, HECKKnh2] was tested, and the “HPLC %” value [1, 4] was 10 µM and the “C'” value [2, 5] was less than 1.95 µM.
For HFCKK-NH2 [Peptide 208, HFCKKnh2], the “HPLC %” value [1, 4] was 10 µM and the “C'” value [2, 5] was 3.9 µM.
HFCKK-NH2 [Peptide 209, HFCKKnh2] was tested, and the “C'” value [2, 5] was 3.9 µM.
With HPCKK-NH2 [Peptide 201, HPCKKnh2] the “HPLC %” value [1, 4] was 10 µM and the “C'” value [2, 5] was 3.9 µM.
In the case of HYCKK-NH2 [Peptide 199, HYCKKnh2], the “HPLC %” value [1, 4] is reported as 10 µM and the “C'” value [2, 5] is reported as 3.9 µM.
For IQHCKK-NH2 [Peptide 134, IQHCKKnh2], the “HPLC” value [1, 6] was 10 µM and the “C'” value [2, 7] was 62 µM.
With “IVLVDNKCKCAR [Peptide 89, reference compound]” the “HPLC minimum” value ([1]; 90 minutes at 37°C) was 50 µM and the “C' minimum” value [2, 10] was 125 µM.
In the case of NIQHCKK-NH2 [Peptide 135, NIQHCKKnh2], the “HPLC” value [1, 6] is reported as 10 µM and the “C'” value [2, 7] is reported as 31 µM.
QHCKK-NH2 [Peptide 133, QHCKKnh2] was tested, and the “HPLC” value [1, 6] was 10 µM and the “C'” value [2, 7] was 31 µM.
